Test results reported in patent US20200368247A1, “CENICRIVIROC FOR THE TREATMENT OF FIBROSIS” (Tobira Therapeutics, Inc., priority 2014, published 2020).

Assay: Phase 1 studies in healthy volunteer subjects
Type: in vivo, human
Text: The frequency and magnitude of transaminase elevations observed across these studies was consistent with the pattern described for Phase 1 studies in scientific literature. […] In both studies and at all doses CVC presented a favorable adverse event profile. […] No clinically relevant changes in ECG parameters or changes for any vital sign parameters were observed during the 48-week treatment period. No apparent dose or exposure relationship for adverse events, laboratory abnormalities (including CPK, ALT, AST and bilirubin elevations) or dose-limiting toxicities were observed.

## CCCCOCCOc1ccc(-c2ccc3c(c2)/C=C(/C(=O)Nc2ccc([S@@+]([O-])Cc4cncn4CCC)cc2)CCCN3CC(C)C)cc1 [CVC, (S)-8-[4-(2-Butoxyethoxy)phenyl]-1-isobutyl-N-(4-{[(1-propyl-1H-imidazol-5-yl)methyl]sulfinyl}phenyl)-1,2,3,4-tetrahydro-1-benzazocine-5-carboxamide]
Phase 1, 10 days
  generally well tolerated multiple daily doses: up to 200 mg
Phase 1, healthy volunteers
  generally well tolerated single doses: up to 800 mg
